# Patent US12281225B2, “Process for preparing stable polymers containing vinylimidazole” (BASF SE, priority 2018, dated 2025)
# Experiments:
# [1] = Physical stability; visual assessment (color, turbidity, phase separation); type: physicochemical; parameters: key: ++: no discernible change with respect to color, turbidity or phase separation; +: marginal change in color number, somewhat increased Tyndall effect but no turbidity; 0: easily discernible increase in color number and moderate turbidity−no phase separation; −: turbidity and change in color number readily discernible by visual assessment; −−: strong color change with strong turbidity and incipient phase separation
# Procedure, shortened: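 Samples were inspected visually for color, turbidity and phase separation and scored on a five-step scale. Scores run from ++ (no discernible change) to −− (strong color change, strong turbidity, incipient phase separation).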
# [2] = Analysis of active substance: preservative concentration before and after storage in VI-containing polymer solution; type: physicochemical; conditions: for active-substance concentration, 0 d, RT: before storage; for active-substance concentration, 14 d, 40° C.: storage 14 d at 40° C.; for active-substance concentration, 28 d, 40° C.: storage 28 d at 40° C.; for active-substance concentration, 60 d 40° C.: storage 60 d at 40° C.
# Procedure, shortened: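 Preservatives (MIT, BIT, CMIT, OIT, DCOIT, iodopropynyl butyl carbamate) in aqueous vinylpyrrolidone–vinylimidazole copolymer solution quantified after dilution by isocratic RP18 chromatography with UV detection, using an acid-methanol eluent.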
# [3] = Iodine color number according to DIN 6162:2014-09; type: physicochemical
# [4] = tested on: Bacteria: Escherichia coli, Staphylococcus aureus, Pseudomonas aeruginosa, Pseudomonas putida, Burkholderia cepacia, Alcaligenes faecalis; experiment: Preservation test with periodic inoculation, bacteria assessment; type: cell-based; conditions: sample stored 60 d at 40° C.
# Procedure, shortened: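 Polymer samples (25 g) containing preservative were inoculated weekly, four times, with 10^9/ml bacterial or yeast mixtures (0.5 ml). Weekly streaks on agar were scored semiquantitatively (−− to ++) after 3 days at 25 °C, on fresh samples and on samples stored 60 days at 40 °C.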
# [5] = Polymer P5 (HP56) with stabilizer
compound,measurement,setting,value
"CCCCCCCCn1sc(Cl)c(Cl)c1=O [DCOIT, dichloroctylisothiazolinone]","Physical stability, 60 d 40° C.*",[1]; Polymer P1 with stabilizer,−−
same,"Physical stability, 60 d 40° C.*",[1]; Polymer P2 with stabilizer,−−
same,"Physical stability, 60 d 40° C.*",[1]; Polymer P3 with stabilizer,−−
same,"Physical stability, 60 d 40° C.*",[1]; Polymer P4 with stabilizer,−
same,"Physical stability, 60 d 40° C.*",[1]; [5],−−
same,"Physical stability, 60 d 40° C.*",[1]; Polymer P6 with stabilizer,−−
same,"Physical stability, 60 d 40° C.*",[1]; Polymer P7 with stabilizer,−−
same,"Physical stability, 60 d 40° C.*",[1]; Polymer P8 with stabilizer,−−
same,"Physical stability, 60 d 40° C.*",[1]; Polymer P9 with stabilizer,−
same,"active-substance concentration, 0 d, RT",[2]; in Polymer P1,300 ppm
same,"active-substance concentration, 14 d, 40° C.",[2]; in Polymer P1,244 ppm
same,"active-substance concentration, 28 d, 40° C.",[2]; in Polymer P1,183 ppm
same,"active-substance concentration, 60 d 40° C.",[2]; in Polymer P1,94 ppm
same,"active-substance concentration, 0 d, RT",[2]; in Polymer P2,300 ppm
same,"active-substance concentration, 14 d, 40° C.",[2]; in Polymer P2,244 ppm
same,"active-substance concentration, 28 d, 40° C.",[2]; in Polymer P2,195 ppm
same,"active-substance concentration, 60 d 40° C.",[2]; in Polymer P2,109 ppm
same,"active-substance concentration, 0 d, RT",[2]; in Polymer P3,300 ppm
same,"active-substance concentration, 14 d, 40° C.",[2]; in Polymer P3,232 ppm
same,"active-substance concentration, 28 d, 40° C.",[2]; in Polymer P3,183 ppm
same,"active-substance concentration, 60 d 40° C.",[2]; in Polymer P3,112 ppm
same,"active-substance concentration, 0 d, RT",[2]; in Polymer P4,300 ppm
same,"active-substance concentration, 14 d, 40° C.",[2]; in Polymer P4,246 ppm
same,"active-substance concentration, 28 d, 40° C.",[2]; in Polymer P4,198 ppm
same,"active-substance concentration, 60 d 40° C.",[2]; in Polymer P4,123 ppm
same,"active-substance concentration, 0 d, RT",[2]; in Polymer P5 (HP56),300 ppm
same,"active-substance concentration, 14 d, 40° C.",[2]; in Polymer P5 (HP56),230 ppm
same,"active-substance concentration, 28 d, 40° C.",[2]; in Polymer P5 (HP56),180 ppm
same,"active-substance concentration, 60 d 40° C.",[2]; in Polymer P5 (HP56),94 ppm
same,"active-substance concentration, 0 d, RT",[2]; in Polymer P6,300 ppm
same,"active-substance concentration, 14 d, 40° C.",[2]; in Polymer P6,222 ppm
same,"active-substance concentration, 28 d, 40° C.",[2]; in Polymer P6,184 ppm
same,"active-substance concentration, 60 d 40° C.",[2]; in Polymer P6,98 ppm
same,"active-substance concentration, 0 d, RT",[2]; in Polymer P7,300 ppm
same,"active-substance concentration, 14 d, 40° C.",[2]; in Polymer P7,228 ppm
same,"active-substance concentration, 28 d, 40° C.",[2]; in Polymer P7,189 ppm
same,"active-substance concentration, 60 d 40° C.",[2]; in Polymer P7,106 ppm
same,"active-substance concentration, 0 d, RT",[2]; in Polymer P8,300 ppm
same,"active-substance concentration, 14 d, 40° C.",[2]; in Polymer P8,230 ppm
same,"active-substance concentration, 28 d, 40° C.",[2]; in Polymer P8,180 ppm
same,"active-substance concentration, 60 d 40° C.",[2]; in Polymer P8,94 ppm
same,"active-substance concentration, 0 d, RT",[2]; in Polymer P9,300 ppm
same,"active-substance concentration, 14 d, 40° C.",[2]; in Polymer P9,219 ppm
same,"active-substance concentration, 28 d, 40° C.",[2]; in Polymer P9,165 ppm
same,"active-substance concentration, 60 d 40° C.",[2]; in Polymer P9,87 ppm
same,"Iodine color number, 60 d 40° C.",[3]; Polymer P1 with stabilizer,6.2
same,"Iodine color number, start",[3]; Polymer P1 with stabilizer,3.0
same,"Iodine color number, 60 d 40° C.",[3]; Polymer P2 with stabilizer,8.1
same,"Iodine color number, start",[3]; Polymer P2 with stabilizer,3.1
same,"Iodine color number, 60 d 40° C.",[3]; Polymer P3 with stabilizer,9.1
same,"Iodine color number, start",[3]; Polymer P3 with stabilizer,3.4
same,"Iodine color number, 60 d 40° C.",[3]; Polymer P4 with stabilizer,8.9
same,"Iodine color number, start",[3]; Polymer P4 with stabilizer,3.4
same,"Iodine color number, 60 d 40° C.",[3]; [5],8.7
same,"Iodine color number, start",[3]; [5],3.6
same,"Iodine color number, 60 d 40° C.",[3]; Polymer P6 with stabilizer,8.4
same,"Iodine color number, start",[3]; Polymer P6 with stabilizer,3.6
same,"Iodine color number, 60 d 40° C.",[3]; Polymer P7 with stabilizer,8.4
same,"Iodine color number, start",[3]; Polymer P7 with stabilizer,3.6
same,"Iodine color number, 60 d 40° C.",[3]; Polymer P8 with stabilizer,8.9
same,"Iodine color number, start",[3]; Polymer P8 with stabilizer,3.4
same,"Iodine color number, 60 d 40° C.",[3]; Polymer P9 with stabilizer,14.7
same,"Iodine color number, start",[3]; Polymer P9 with stabilizer,3.9
same,"60 d 40° C., bact. assess., 4th inoculation",[4]; Polymer P1,"0 (moderate growth, max. 400 colonies)"
same,"60 d 40° C., bact. assess., 4th inoculation",[4]; Polymer P2,+
same,"60 d 40° C., bact. assess., 4th inoculation",[4]; Polymer P3,+
same,"60 d 40° C., bact. assess., 4th inoculation",[4]; Polymer P4,+
same,"60 d 40° C., bact. assess., 4th inoculation",[4]; Polymer P5 (HP56),+
same,"60 d 40° C., bact. assess., 4th inoculation",[4]; Polymer P6,+
same,"60 d 40° C., bact. assess., 4th inoculation",[4]; Polymer P7,+
same,"60 d 40° C., bact. assess., 4th inoculation",[4]; Polymer P8,+
same,"60 d 40° C., bact. assess., 4th inoculation",[4]; Polymer P9,++
